{
  "source": "patent US10918742B2",
  "about": "“Iodine-based particles” (Nanoprobes, Inc., priority 2016, dated 2021)",
  "key": {"[1]": {"assay": "microCT comparison with commercially available agent (kidney, lung)", "assay_type": "in vivo, mouse", "protocol": "A mouse was injected with a standard iodine contrast agent at an effective dose of 2.5 g iodine/kg.\nA mouse was injected with a standard iodine contrast agent at an effective dose of 1.75 g iodine/kg."}, "[2]": {"conditions": "mice, acute dose; cited from earlier work"}},
  "data": [
    {"smiles": "CC(=O)N(CC(O)CO)c1c(I)c(C(=O)NCC(O)CO)c(I)c(C(=O)NCC(O)CO)c1I", "note": "(stereo not drawn) [Iohexol, 5-(N-2,3-Dihydroxypropylacetamido)-2,4,6-triiodo-N,N′-bis(2,3-dihydroxypropyl)isophthalamide]", "values": [
      {"measurement": "microCT of lung region", "setting": "[1]; 30 minutes after injection, 1.75 g iodine/kg", "value": "no clear visualization of any vasculature"},
      {"measurement": "microCT of kidney region", "setting": "[1]; two minutes after injection, Example 1 at 1.75 g iodine/kg, standard agent at 2.5 g iodine/kg", "value": "the iodine has rapidly entered the kidneys and is being quickly removed from the blood"},
      {"measurement": "intravenous LD50", "setting": "[2]", "value": 24.2, "unit": "g iodine/kg"}
    ]}
  ]
}
